Test results reported in patent US8568994B2, “Method for prenatal diagnosis” (DKFZ Deutsches Krebsforschungszentrum, Stiftung des …, priority 2007, dated 2013).

System: Differentiated HPC cells
Assay: Regulated exosomal secretion in human podocytes (Western blot of secreted vesicles for CD24, HSP70, Annexin-1)
Format: cell-based
Conditions: MCD 10 μg/ml or 10 mM for 2 hr
Protocol: Cultured HPC (differentiated) were treated with ionomycin (1 μM), MCD (10 mM) or cis-platin (15 μM) for 2 hr. Secreted membrane vesicles were harvested and cells were lysed in lysis buffer. Lysates and isolated vesicles were analyzed by SDS-PAGE followed by Western blot analysis with the indicated antibodies to CD24 and the exosomal marker proteins HSP70 and Annexin-1. Note the low level of constitutive vesicle secretion that is augmented by MCD.
Differentiated HPC cells were treated with ionomycin ([…]), MCD (10 μg/ml) or cisplatin (1 μg/ml) and analyzed the amount of exosomes released.
Human conditionally immortalized podocytes (HPC) were isolated and cultivated as previously described (31). Cells were grown in flasks either at the permissive temperature of 32° C. (in 5% CO2) to promote cell propagation as a cobblestone phenotype (undifferentiated) or at the nonpermissive temperature of 37° C. (in 5% CO2) to inactivate the SV40 T antigen and to allow the cells to differentiate. Prior to stimulation, cells were incubated for 16 h in RPMI 1640 medium, supplemented with 0.1 mg/ml of fatty acid-free bovine serum albumin. HK-2 human proximal tubular epithelial cells were obtained from American Type Culture Collection (ATCC, USA). Human mesangial cells (HMC) were kindly provided by Prof. Dr. Radeke (Depart. of Pharmacology, University of Frankfurt). […]

## methyl-beta-cyclodextrin [MCD]
  release of CD24 containing exosomes: significantly augmented the release of CD24 containing exosomes
